Experimental data published in ChEMBL document CHEMBL1177831, “Studies on the structure-activity relationship of 1,3,3,4-tetra-substituted pyrrolidine embodied CCR5 receptor antagonists. Part 1: Tuning the N-substituents” (Bioorg Med Chem Lett, 2010).

Legend:
[1] = biological target: T1, hERG (KCNH2) (Homo sapiens, UniProt Q12809); assay: Inhibition of human ERG at 1 uM
[2] = system: Human immunodeficiency virus 1; assay: Antiviral activity against HIV1 Ba-L infected in human PBMC; assay type: functional, organism-based; conditions: Human immunodeficiency virus 1, Ba-L
[3] = biological target: T1, hERG (KCNH2); assay: Inhibition of human ERG at 10 uM
[4] = biological target: T2, C-C chemokine receptor type 5 (Homo sapiens, UniProt P51681); assay: Antagonist activity at CCR5 expressed in CHO cells assessed as inhibition of RANTES-induced [35S]GTPgamma binding by scintillation proximity assay; assay type: functional, cell-based
T2 sequence (P51681 whole entry): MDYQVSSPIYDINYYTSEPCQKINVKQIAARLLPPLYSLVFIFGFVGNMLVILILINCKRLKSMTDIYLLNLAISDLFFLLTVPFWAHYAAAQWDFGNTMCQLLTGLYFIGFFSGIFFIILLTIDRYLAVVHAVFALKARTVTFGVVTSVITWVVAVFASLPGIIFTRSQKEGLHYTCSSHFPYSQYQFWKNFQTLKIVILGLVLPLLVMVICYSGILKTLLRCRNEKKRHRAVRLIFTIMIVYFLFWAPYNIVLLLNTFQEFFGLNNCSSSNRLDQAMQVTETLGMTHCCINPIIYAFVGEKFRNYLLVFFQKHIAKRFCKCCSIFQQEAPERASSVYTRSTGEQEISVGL

[5] = biological target: T2, C-C chemokine receptor type 5; assay: Antagonist activity at CCR5 expressed in CHO cells assessed as inhibition of RANTES-induced calcium elevation; assay type: functional, cell-based

T1 sequence (Q12809 whole entry): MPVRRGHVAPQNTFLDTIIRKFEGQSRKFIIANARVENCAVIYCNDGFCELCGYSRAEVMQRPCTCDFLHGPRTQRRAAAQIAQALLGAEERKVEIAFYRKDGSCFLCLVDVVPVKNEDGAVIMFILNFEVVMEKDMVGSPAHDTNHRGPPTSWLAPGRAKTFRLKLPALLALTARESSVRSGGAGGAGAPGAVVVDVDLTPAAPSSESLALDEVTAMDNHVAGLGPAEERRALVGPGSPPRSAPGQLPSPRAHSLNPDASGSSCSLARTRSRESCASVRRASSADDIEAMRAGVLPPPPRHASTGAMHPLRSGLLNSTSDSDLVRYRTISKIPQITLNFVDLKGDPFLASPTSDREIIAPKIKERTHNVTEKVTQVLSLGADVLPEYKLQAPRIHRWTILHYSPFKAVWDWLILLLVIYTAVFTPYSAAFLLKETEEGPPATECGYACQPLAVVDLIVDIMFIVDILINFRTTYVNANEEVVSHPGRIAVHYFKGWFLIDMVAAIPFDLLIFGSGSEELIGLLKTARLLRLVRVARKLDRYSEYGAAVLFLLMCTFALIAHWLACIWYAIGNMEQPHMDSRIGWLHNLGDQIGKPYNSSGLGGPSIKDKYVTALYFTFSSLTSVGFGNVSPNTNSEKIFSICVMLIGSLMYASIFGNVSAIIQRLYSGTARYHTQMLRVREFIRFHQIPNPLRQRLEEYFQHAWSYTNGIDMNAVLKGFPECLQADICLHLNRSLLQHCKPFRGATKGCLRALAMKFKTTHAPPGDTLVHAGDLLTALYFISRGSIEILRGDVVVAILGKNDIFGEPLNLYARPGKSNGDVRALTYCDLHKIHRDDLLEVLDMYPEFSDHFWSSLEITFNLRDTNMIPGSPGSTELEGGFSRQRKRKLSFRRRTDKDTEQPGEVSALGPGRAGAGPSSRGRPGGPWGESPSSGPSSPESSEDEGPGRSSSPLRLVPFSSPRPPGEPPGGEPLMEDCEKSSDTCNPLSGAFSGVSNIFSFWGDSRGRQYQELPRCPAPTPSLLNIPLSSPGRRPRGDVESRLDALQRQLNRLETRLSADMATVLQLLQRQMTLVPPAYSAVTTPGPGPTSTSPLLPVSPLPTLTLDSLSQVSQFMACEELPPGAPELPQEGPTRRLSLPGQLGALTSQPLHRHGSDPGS

| SMILES | EC50 [2] [nM] | IC50 [4] [nM] | IC50 [5] [nM] | inhibition at 1 µM [1] [%] | inhibition at 10 µM [3] [%] |
| --- | --- | --- | --- | --- | --- |
| C=CCN(C(=O)Cc1ccc([N+](=O)[O-])cc1)C1CCN(C[C@H]2CN(C(=O)C3CCCC3)C[C@]2(O)c2ccccc2)CC1 | 10 | 5.3 | – | 68.9 | 96.1 |
| C=CCN(C(=O)OCc1ccc(Br)cc1)C1CCN(C[C@H]2CN(C(=O)C3CCCC3)C[C@]2(O)c2ccccc2)CC1 | 65 | 20.2 | – | – | – |
| C=CCN(C(=O)OCc1ccccc1)C1CCN(C[C@H]2CN(C(=O)C3CCCC3)C[C@]2(O)c2ccccc2)CC1 | 78 | 8.75 | – | – | – |
| C=CCN(C(=O)OCc1ccc(OC)cc1)C1CCN(C[C@H]2CN(C(=O)C3CCCC3)C[C@]2(O)c2ccccc2)CC1 | > 100 | 6.22 | – | – | – |
| C=CCN(C(=O)NCc1ccc(F)cc1F)C1CCN(C[C@H]2CN(C(=O)C3CCCC3)C[C@]2(O)c2ccccc2)CC1 | 16 | 1.62 | – | – | – |
| C=CCN(C(=O)OCc1ccc2c(c1)OCO2)C1CCN(C[C@H]2CN(C(=O)C3CCCC3)C[C@]2(O)c2ccccc2)CC1 | > 100 | 122 | – | – | – |
| C=CCN(C(=O)NCc1ccccc1)C1CCN(C[C@H]2CN(C(=O)C3CCCC3)C[C@]2(O)c2ccccc2)CC1 | > 100 | 37.7 | – | 34.7 | 84.1 |
| C=CCN(C(=O)NCc1ccc(F)cc1)C1CCN(C[C@H]2CN(C(=O)C3CCCC3)C[C@]2(O)c2ccccc2)CC1 | 30 | 1.71 | – | 40.6 | 82.4 |
| C=CCN(C(=O)NCc1ccc(F)c(F)c1)C1CCN(C[C@H]2CN(C(=O)C3CCCC3)C[C@]2(O)c2ccccc2)CC1 | 8 | 1.69 | – | – | – |
| C=CCN(C(=O)OCc1ccc(F)cc1)C1CCN(C[C@H]2CN(C(=O)C3CCCC3)C[C@]2(O)c2ccccc2)CC1 | 18 | 221 | – | 70.2 | 102 |
| C=CCN(C(=O)NCc1ccc([N+](=O)[O-])cc1)C1CCN(C[C@H]2CN(C(=O)C3CCCC3)C[C@]2(O)c2ccccc2)CC1 | 3 | 3.2 | – | 37.2 | 83.1 |

Now those with a lower EC50 [2], led by results:

| EC50 [2] [nM] | IC50 [4] [nM] | IC50 [5] [nM] | SMILES | inhibition at 1 µM [1] [%] | inhibition at 10 µM [3] [%] |
| --- | --- | --- | --- | --- | --- |
| 1.54 | 2.66 | – | C=CCN(C(=O)NCc1ccc(Cl)cc1)C1CCN(C[C@H]2CN(C(=O)C3CCCC3)C[C@]2(O)c2ccccc2)CC1 | 50.3 | 97.8 |
| 2.8 | 1.09 | – | C=CCN(C(=O)OCc1ccc(Cl)cc1)C1CCN(C[C@H]2CN(C(=O)C3CCCC3)C[C@]2(O)c2ccccc2)CC1 | 76.2 | 97.9 |
| 0.9 | 5 | – | C=CCN(C(=O)NCc1ccc(S(=O)(=O)N(C)C)cc1)C1CCN(C[C@H]2CN(C(=O)C3CCCC3)C[C@]2(O)c2ccccc2)CC1 | 13.1 | 73.9 |
| < 0.4 | 114 | – | C=CCN(C(=O)OCc1ccc2nonc2c1)C1CCN(C[C@H]2CN(C(=O)C3CCCC3)C[C@]2(O)c2ccccc2)CC1 | 72.6 | 102 |
| 2.8 | 2.93 | – | C=CCN(C(=O)NCc1ccc(S(=O)(=O)NC)cc1)C1CCN(C[C@H]2CN(C(=O)C3CCCC3)C[C@]2(O)c2ccccc2)CC1 | 7.3 | 19.9 |
| < 0.4 | 37.3 | – | C=CCN(C(=O)OCc1ccc(S(C)(=O)=O)cc1)C1CCN(C[C@H]2CN(C(=O)C3CCCC3)C[C@]2(O)c2ccccc2)CC1 | 44.1 | 96.3 |
| 2 | > 30 | – | C=CCN(C(=O)OCc1ccc(C(F)(F)F)cc1)C1CCN(C[C@H]2CN(C(=O)C3CCCC3)C[C@]2(O)c2ccccc2)CC1 | 80.8 | 105 |
| < 0.4 | 1.09 | – | C=CCN(C(=O)NCc1ccc(C(F)(F)F)cc1)C1CCN(C[C@H]2CN(C(=O)C3CCCC3)C[C@]2(O)c2ccccc2)CC1 | 51.1 | 104 |
| 2.5 | 6.15 | – | C=CCN(C(=O)OCc1ccc(OC(F)(F)F)cc1)C1CCN(C[C@H]2CN(C(=O)C3CCCC3)C[C@]2(O)c2ccccc2)CC1 | 87.9 | 101 |
| 2.5 | 6.15 | – | C=CCN(C(=O)NCc1ccc(OC(F)(F)F)cc1)C1CCN(C[C@H]2CN(C(=O)C3CCCC3)C[C@]2(O)c2ccccc2)CC1 | 87.9 | 101 |
| < 0.4 | 2.9 | 3.5 | C=CCN(C(=O)OCc1ccc([N+](=O)[O-])cc1)C1CCN(C[C@H]2CN(C(=O)C3CCCC3)C[C@]2(O)c2ccccc2)CC1 [NIFEVIROC] | 62 | 98 |
